Measurements as given in US12103924B2, “Mitogen-activated protein kinase kinase (MEK) degradation compounds and methods of use” (Icahn School of Medicine at Mount Sinai, priority 2020, dated 2024).

Columns and labels:
HT-29 cells = experiment: WST-8 cell viability assay, HT-29; assay type: cell-based; conditions: WST-8 3 d serial dilutions, clonogenic assay 10 d
Description: (§1) Cells were fixed and stained by crystal violet.
(§2) Cells (2000 cells per well) were seeded into 96-well microplates. After 20 h, cells were treated with 0.1% DMSO or indicated serial dilutions of compounds in duplicate or triplicate for 3 days. Cell viability was tested using MTT (M6494, Thermo Fisher Scientific) or WST-8 reagent (CK04, Dojindo). Briefly, 12 mM MTT was prepared in PBS or WST-8 reagent was warmed up to room temperature. 20 μL MTT or CCK-8 was then added to each well and the plates were kept in incubator at 37° C. for 3 h in the dark. For the WST-8 assay, signal was obtained after the incubation. For the MTT assay, cell medium was replaced with 200 μL of DMSO after the incubation, and then cell plates were kept at 37° C. for another 30 min. Absorbance signals for MTT and WST-8 were read at 540 nm and 450 nm respectively, with 690 nm as reference performed with Infinite F PLEX plate reader (TECAN, Morrisville, NC, USA). GI50 values were analyzed using GraphPad Prism 8 from the data of at least three independent experiments.

SK-MEL-28 cells = experiment: WST-8 cell viability assay, SK-MEL-28; assay type: cell-based; conditions: WST-8 3 d serial dilutions
Description: as §1, §2

MEK1/2 [1] = experiment: Western blot of MEK1/2 protein levels in HT-29 cells; assay type: cell-based; conditions: HT-29 cells
Description: Compound concentrations are 0.3 μM, 1 μM and 3 μM.
(§3) The indicated protein levels were determined by Western blots.
(§4) The sample was centrifuged at 12,000 g for 10 min at 4° C. to get supernatant as cell lysate. Protein concentrations were quantified using Pierce rapid gold BCA protein assay kit.

pMEK and pERK [2] = experiment: Western blot of MEK and ERK phosphorylation in HT-29 cells; assay type: cell-based; conditions: HT-29 cells
MEK1 and MEK2 proteins = experiment: Global proteome analysis of HT-29 cells; assay type: cell-based, human; conditions: 8 h, 0.1 μM CPD-038 or CPD-052, 0.3 μM CPD-051 or CPD-097, versus 0.1% DMSO
Description: […] […] P values were calculated from the data of two technical replicates. (A) DMSO compared to CPD-031 treated samples; (B) CPD-034 compared to CPD-031 treated samples; (C) DMSO compared to CPD-034 treated samples.
Proteins outside the significance lines were labeled with pink or purple color (FDR=0.05, S0=1). P values were calculated from the data of two technical replicates.
Protein Extraction and Digestion. Cells with indicated treatments were harvested and lysed in lysis buffer (6 M guanidine hydrochloride, 100 mM Tris-HCl pH 8.0). Sonication (5 s on, 5 s off, 2×30 s) was performed to shear genome DNA. Lysate were centrifugated for 30 min at 3,500 g at 4° C. and the supernatant were transferred to a clean tube, diluted 50% with Milli-Q H2O, then precipitated by addition of cold acetone (four times the original volume), and placed at −20° C. overnight. Precipitated proteins were brought down at 20,000 g at 4° C. for 10 min, and washed with cold acetone after discarding the supernatant. The pellet was air-dried at RT for 5 min and solubilized with 50 mM Tris-HCl (PH 8.0), 8 M urea. Protein concentration was determined (BCA assay) and protein was reduced with 5 mM DTT (dithiothreitol), alkylated with 15 mM IAA (iodoacetamide) in the dark, then diluted with buffer 25 mM Tris (pH 8.0) and 1 mM CaCl2 (three times the original volume). The final urea concentration is 2 M. Trypsin was added into protein solution with 1:100 ratio (trypsin:protein), and digested 12-16 h or overnight at RT.
Mass Spectrometry Analysis. Peptides were cleaned up by C18 stage tips and the concentration was determined (Peptide assay, 23275, Thermo Fisher Scientific). The clean peptides were dissolved in 0.1% formic acid and analyzed on a Q-Exactive HF-X coupled with an Easy nanoLC 1200 (Thermo Fisher Scientific, San Jose, CA). 0.5 μg of peptides were loaded onto an Acclain PepMap RSLC C18 Column (250 mm×75 μm ID, C18, 2 μm, Thermo Fisher Scientific). […] A linear gradient of 5 to 30% buffer B over 110 min was executed at a 300 nl/min flow rate followed a ramp to 100% B in 5 min, and 15-min wash with 100% B, where buffer A was aqueous 0.1% formic acid, and buffer B was 80% acetonitrile and 0.1% formic acid.
LC-MS experiments were performed in a data-dependent mode with full MS (externally calibrated to a mass accuracy of <5 ppm and a resolution of 60,000 at m/z 200) followed by high energy collision-activated dissociation-MS/MS of the top 20 most intense ions with a resolution of 15,000 at m/z 200. High energy collision-activated dissociation-MS/MS was used to dissociate peptides at a normalized collision energy of 27 eV in the presence of nitrogen bath gas atoms. Dynamic exclusion was 30.0 seconds. Each sample was subjected to two technical LC-MS replicates.
MS Data Analysis. Mass spectra processing and peptide identification were performed on the Andromeda search engine in MaxQuant software (Version 1.6.0.16) against the human UniProt database (UP000005640). All searches were conducted with a defined modification of cysteine carbamidomethylation, with methionine oxidation and protein amino-terminal acetylation as dynamic modifications. Peptides were confidently identified using a target-decoy approach with a peptide false discovery rate (FDR) of 1% and a protein FDR of 1%. A minimum peptide length of 7 amino acids was required, maximally two missed cleavages were allowed, initial mass deviation for precursor ion was up to 7 ppm, and the maximum allowed mass deviation for fragment ions was 0.5 Da. Data processing and statistical analysis were performed on Perseus (Version 1.6.0.7). Protein quantitation was performed on duplicate runs, and a two-sample t-test statistics was used to report statistically significant expression fold-changes.

MEK1/2 [3] = experiment: Western blot of MEK1/2 protein levels in SK-MEL-28 cells; conditions: SK-MEL-28 cells
Description: as §3, §4

pMEK and pERK [4] = experiment: Western blot of MEK and ERK phosphorylation in SK-MEL-28 cells; conditions: SK-MEL-28 cells
[5] = 0.1 μM or 0.3 μM, harvested at indicated time points
[6] = serial dilution, 24 h, western blot

Row | SMILES | growth of cells (HT-29 cells) | growth of cells (SK-MEL-28 cells) | MEK1 and MEK2 protein levels, time-dependent (MEK1/2 [1]; [5]) | MEK1 and MEK2 protein levels (MEK1/2 [1]; 24 h, 0.3 μM, 1 μM and 3 μM, western blot normalized with α-tubulin) | MEK1 and MEK2 protein levels, concentration-dependent (MEK1/2 [1]; [6]) | phosphorylation of MEK and ERK / pERK signaling, time-dependent (pMEK and pERK [2]; [5]) | phosphorylation of MEK and ERK proteins, concentration-dependent (pMEK and pERK [2]; [6]) | protein levels in the global proteomic study (MEK1 and MEK2 proteins) | MEK1 and MEK2 protein levels, time-dependent (MEK1/2 [3]; [5]) | MEK1 and MEK2 protein levels, concentration-dependent (MEK1/2 [3]; [6]) | phosphorylation of MEK and ERK / pERK signaling, time-dependent (pMEK and pERK [4]; [5]) | phosphorylation of MEK and ERK proteins, concentration-dependent (pMEK and pERK [4]; [6])
1 | O=C1CCC(N2C(=O)c3ccc(NCCOCCOCCOCCOCCOCCNCCCONC(=O)c4ccc(F)c(F)c4Nc4ccc(I)cc4F)cc3C2=O)C(=O)N1 (centres unmarked) [CPD-051, N-((1-((2-(2,6-dioxopiperidin-3-yl)-1,3-dioxoisoindolin-5-yl)amino)-3,6,9,12,15-pentaoxa-18-azahenicosan-21-yl)oxy)-3,4-difluoro-2-((2-fluoro-4-iodophenyl)amino)benzamide] | significantly suppressed | significantly suppressed | degrade | significantly degraded | concentration-dependently reduced | inhibit | inhibited | selectively degraded | degrade | concentration-dependently reduced | inhibit | inhibited
2 | Cc1ncsc1-c1ccc([C@H](C)NC(=O)[C@H]2C[C@H](O)CN2C(=O)[C@@H](NC(=O)CCCCCCCCCCCNCCCCONC(=O)c2ccc(F)c(F)c2Nc2ccc(I)cc2F)C(C)(C)C)cc1 [CPD-052, (2R,4S)-1-((S)-22-(tert-butyl)-1-(3,4-difluoro-2-((2-fluoro-4-iodophenyl)amino)phenyl)-1,20-dioxo-3-oxa-2,8,21-triazatricosan-23-oyl)-4-hydroxy-N-((S)-1-(4-(4-methylthiazol-5-yl)phenyl)ethyl)pyrrolidine-2-carboxamide] | did not significantly suppress | did not significantly suppress | – | – | – | – | – | did not significantly modulate | – | – | – | –
3 | Cc1ncsc1-c1ccc([C@H](C)NC(=O)[C@H]2C[C@H](O)CN2C(=O)[C@@H](NC(=O)CCCCCCCCCCN(C)CCCONC(=O)c2ccc(F)c(F)c2Nc2ccc(I)cc2F)C(C)(C)C)cc1 [CPD-053, (2R,4S)-1-((S)-20-(tert-butyl)-1-(3,4-difluoro-2-((2-fluoro-4-iodophenyl)amino)phenyl)-7-methyl-1,18-dioxo-3-oxa-2,7,19-triazahenicosan-21-oyl)-4-hydroxy-N-((S)-1-(4-(4-methylthiazol-5-yl)phenyl)ethyl)pyrrolidine-2-carboxamide] | did not significantly suppress | did not significantly suppress | – | – | – | – | – | – | – | – | – | –
4 | CN1C(=O)CCC(N2C(=O)c3ccc(NCCOCCOCCOCCOCCOCCNCCCONC(=O)c4ccc(F)c(F)c4Nc4ccc(I)cc4F)cc3C2=O)C1=O (centres unmarked) [CPD-097, 3,4-difluoro-2-((2-fluoro-4-iodophenyl)amino)-N-((1-((2-(1-methyl-2,6-dioxopiperidin-3-yl)-1,3-dioxoisoindolin-5-yl)amino)-3,6,9,12,15-pentaoxa-18-azahenicosan-21-yl)oxy)benzamide] | did not significantly suppress | did not significantly suppress | – | – | – | – | – | did not significantly modulate | – | – | – | –
